Results from US9730944B2, “Antiviral activity of novel bicyclic heterocycles” (priority 2010, dated 2017).
Values after ≈ are worked out from the molar mass of the structure shown.

Legend:
hRV-15 = assay: Rhinovirus type 15 antiviral assay in Hela Rh cells, MTS readout; format: cell-based, Human rhinovirus; conditions: Human rhinovirus sp., HRV15, HeLa Rh, Hela Rh cells; read-out: hRV-15 EC50
hRV-41 = assay: Rhinovirus type 41 antiviral assay in Hela Rh cells, MTS readout; format: cell-based, Human rhinovirus; conditions: Human rhinovirus sp., HRV41, HeLa Rh, Hela Rh cells; read-out: hRV-41 EC50
hRV-45 = assay: Rhinovirus type 45 antiviral assay in Hela Rh cells, MTS readout; format: cell-based, Human rhinovirus; conditions: Human rhinovirus sp., HRV45, HeLa Rh, Hela Rh cells; read-out: hRV-45 EC50
hRV-85 = assay: Rhinovirus type 85 antiviral assay in Hela Rh cells, MTS readout; format: cell-based, Human rhinovirus; conditions: Human rhinovirus sp., HRV85, HeLa Rh, Hela Rh cells; read-out: hRV-85 EC50
hRV-9 = assay: Rhinovirus type 9 antiviral assay in Hela Rh cells, MTS readout; format: cell-based, Human rhinovirus; conditions: Human rhinovirus sp., HRV9, HeLa Rh, Hela Rh cells; read-out: hRV-9 EC50
hRV-2 = assay: Rhinovirus type 2 antiviral assay in Hela Rh cells, MTS readout; format: cell-based, Human rhinovirus; conditions: Rhinovirus A, HRV2, HeLa Rh, Hela Rh cells; read-out: hRV-2 EC50
hRV-86 = assay: Rhinovirus type 86 antiviral assay in Hela Rh cells, MTS readout; format: cell-based, Human rhinovirus; conditions: Human rhinovirus sp., HRV86, HeLa Rh, Hela Rh cells; read-out: hRV-86 EC50
hRV-63 = assay: Rhinovirus type 63 antiviral assay in Hela Rh cells, MTS readout; format: cell-based, Human rhinovirus; conditions: Human rhinovirus sp., HRV63, HeLa Rh, Hela Rh cells; read-out: hRV-63 EC50
hRV-70 = assay: Rhinovirus type 70 antiviral assay in Hela Rh cells, MTS readout; format: cell-based, Human rhinovirus; conditions: Human rhinovirus sp., HRV70, HeLa Rh, Hela Rh cells; read-out: hRV-70 EC50
hRV-29 = assay: Rhinovirus type 29 antiviral assay in Hela Rh cells, MTS readout; format: cell-based; conditions: Human rhinovirus sp., HRV29, HeLa Rh, Hela Rh cells; read-out: hRV-29 EC50
hRV-72 = assay: Rhinovirus type 72 antiviral assay in Hela Rh cells, MTS readout; format: cell-based, Human rhinovirus; conditions: Human rhinovirus sp., HRV72, HeLa Rh, Hela Rh cells; read-out: hRV-72 EC50
hRV-42 = assay: Rhinovirus type 42 antiviral assay in Hela Rh cells, MTS readout; format: cell-based, Human rhinovirus; conditions: Human rhinovirus sp., HRV42, HeLa Rh, Hela Rh cells; read-out: hRV-42 EC50
hRV-14 = assay: Rhinovirus type 14 antiviral assay in Hela Rh cells, MTS readout; format: cell-based, Human rhinovirus; conditions: Rhinovirus B, HRV14, HeLa Rh, Hela Rh cells; read-out: hRV-14 EC50
[1] = Cytostatic/cytotoxic effect in Hela Rh cells (rhinovirus methodology, MTS); conditions: human, CC50, Hela Rh cells
hRV-39 = assay: Rhinovirus type 39 antiviral assay in Hela Rh cells, MTS readout; format: cell-based, Human rhinovirus; conditions: Human rhinovirus sp., HRV39, HeLa Rh, Hela Rh cells; read-out: hRV-39 EC50

Compound	EC50 (hRV-15) [µg/mL]	EC50 (hRV-41) [µg/mL]	EC50 (hRV-45) [µg/mL]	EC50 (hRV-85) [µg/mL]	EC50 (hRV-9) [µg/mL]	EC50 (hRV-2) [µg/mL]	EC50 (hRV-86) [µg/mL]	EC50 (hRV-63) [µg/mL]	EC50 (hRV-70) [µg/mL]	EC50 (hRV-29) [µg/mL]	EC50 (hRV-72) [µg/mL]	EC50 (hRV-42) [µg/mL]	EC50 (hRV-14) [µg/mL]	CC50 [1] [µg/mL]	EC50 (hRV-39) [µg/mL]
Nc1nc(N2CCN(C(=O)COc3ccc(OC(F)(F)F)cc3)CC2)c2nc(CCc3ccc(F)cc3)sc2n1 [Example 226, 1-(4-(5-amino-2-(4-fluorophenethyl)thiazolo[5,4-d]pyrimidin-7-yl)piperazin-1-yl)-2-(4-(trifluoromethoxy)phenoxy)ethanone]	> 50	> 50	> 50	29.9 (≈ 51.9 µM)	> 50	> 50	> 50	> 50	> 50	> 50	> 50	> 50	> 50	> 50	> 50
CC(=O)c1ccc(OCC(=O)N2CCN(c3nc(N)nc4sc(CCc5ccc(F)cc5)nc34)CC2)cc1 [Example 227, 2-(4-acetylphenoxy)-1-(4-(5-amino-2-(4-fluorophenethyl)thiazolo[5,4-d]pyrimidin-7-yl)piperazin-1-yl)ethanone]	> 50	> 50	35.4 (≈ 66.1 µM)	2.19 (≈ 4.1 µM)	0.56 (≈ 1.05 µM)	0.26 (≈ 0.486 µM)	4.59 (≈ 8.59 µM)	30.6 (≈ 57.2 µM)	> 50	4.8 (≈ 8.98 µM)	> 50	> 50	> 50	> 50	0.3 (≈ 0.561 µM)
Nc1nc(N2CCN(C(=O)COc3ccc(F)cc3)CC2)c2nc(-c3ccc(F)cc3)sc2n1 [Example 233, 1-(4-(5-amino-2-(4-fluorophenyl)thiazolo[5,4-d]pyrimidin-7-yl)piperazin-1-yl)-2-(4-fluorophenoxy)ethanone]	< 0.02	< 0.39	< 0.39	< 0.39	< 0.02	< 0.02	< 0.39	< 0.39	< 0.39	< 0.02	0.88 (≈ 1.82 µM)	< 0.39	< 0.02	> 50	< 0.02
Nc1nc(N2CCN(C(=O)COc3ccc(Br)cc3)CC2)c2nc(-c3ccc(F)cc3)sc2n1 [Example 235, 1-(4-(5-amino-2-(4-fluorophenyl)thiazolo[5,4-d]pyrimidin-7-yl)piperazin-1-yl)-2-(4-bromophenoxy)ethanone]	< 0.02	< 0.39	< 0.39	< 0.39	< 0.02	< 0.02	0.58 (≈ 1.07 µM)	< 0.39	< 0.39	< 0.02	0.65 (≈ 1.2 µM)	< 0.39	0.04 (≈ 0.0736 µM)	> 50	< 0.02
COc1cccc(CCc2nc3c(N4CCN(C(=O)COc5ccc(Br)cc5)CC4)nc(N)nc3s2)c1 [Example 254, 1-(4-(5-amino-2-(3-methoxyphenethyl)thiazolo[5,4-d]pyrimidin-7-yl)piperazin-1-yl)-2-(4-bromophenoxy)ethanone]	3.44 (≈ 5.9 µM)	13 (≈ 22.3 µM)	4.87 (≈ 8.35 µM)	3.99 (≈ 6.84 µM)	1.26 (≈ 2.16 µM)	1.3 (≈ 2.23 µM)	4.62 (≈ 7.92 µM)	5.85 (≈ 10 µM)	4.77 (≈ 8.17 µM)	1.27 (≈ 2.18 µM)	9.05 (≈ 15.5 µM)	2.41 (≈ 4.13 µM)	1.23 (≈ 2.11 µM)	> 50	1.18 (≈ 2.02 µM)
COc1cccc(CCc2nc3c(N4CCN(C(=O)COc5ccc(Cl)cc5)CC4)nc(N)nc3s2)c1 [Example 255, 1-(4-(5-amino-2-(3-methoxyphenethyl)thiazolo[5,4-d]pyrimidin-7-yl)piperazin-1-yl)-2-(4-chlorophenoxy)ethanone]	1.82 (≈ 3.38 µM)	20.8 (≈ 38.6 µM)	2.34 (≈ 4.34 µM)	2.18 (≈ 4.04 µM)	0.52 (≈ 0.965 µM)	0.65 (≈ 1.21 µM)	2.61 (≈ 4.84 µM)	3.31 (≈ 6.14 µM)	4.02 (≈ 7.46 µM)	0.6 (≈ 1.11 µM)	> 50	1.1 (≈ 2.04 µM)	0.53 (≈ 0.983 µM)	> 50	0.5 (≈ 0.928 µM)
COc1ccc(CCc2nc3c(N4CCN(C(=O)COc5ccc(Br)cc5)CC4)nc(N)nc3s2)cc1OC [Example 256, 1-(4-(5-amino-2-(3,4-dimethoxyphenethyl)thiazolo[5,4-d]pyrimidin-7-yl)piperazin-1-yl)-2-(4-bromophenoxy)ethanone]	> 50	> 50	> 50	9.48 (≈ 15.5 µM)	4.05 (≈ 6.6 µM)	2.07 (≈ 3.37 µM)	4.86 (≈ 7.92 µM)	32.9 (≈ 53.6 µM)	5.97 (≈ 9.73 µM)	4.06 (≈ 6.62 µM)	6.89 (≈ 11.2 µM)	5.22 (≈ 8.51 µM)	2.81 (≈ 4.58 µM)	> 50	1.8 (≈ 2.93 µM)
COc1ccc(OCC(=O)N2CCN(c3nc(N)nc4sc(CCc5ccc(OC)c(OC)c5)nc34)CC2)cc1 [Example 257, 1-(4-(5-amino-2-(3,4-dimethoxyphenethyl)thiazolo[5,4-d]pyrimidin-7-yl)piperazin-1-yl)-2-(4-methoxyphenoxy)ethanone]	46.2 (≈ 81.9 µM)	31.1 (≈ 55.1 µM)	30.8 (≈ 54.6 µM)	8.05 (≈ 14.3 µM)	3.69 (≈ 6.53 µM)	3.01 (≈ 5.33 µM)	4.79 (≈ 8.48 µM)	26.4 (≈ 46.8 µM)	7.1 (≈ 12.6 µM)	14.9 (≈ 26.3 µM)	5.95 (≈ 10.5 µM)	5.09 (≈ 9.01 µM)	2.32 (≈ 4.11 µM)	> 50	2.26 (≈ 4 µM)
Cc1ccc(CCc2nc3c(N4CCN(C(=O)COc5ccc(Br)cc5)CC4)nc(N)nc3s2)cc1 [Example 258, 1-(4-(5-amino-2-(4-methylphenethyl)thiazolo[5,4-d]pyrimidin-7-yl)piperazin-1-yl)-2-(4-bromophenoxy)ethanone]	> 50	> 50	35.4 (≈ 62.3 µM)	8.33 (≈ 14.7 µM)	> 50	9.58 (≈ 16.9 µM)	> 50	34 (≈ 60 µM)	> 50	> 50	> 50	> 50	> 50	46.2 (≈ 81.5 µM)	13 (≈ 22.9 µM)
